Measurements reported in publication PMC5537602, “TRPA1 channel mediates organophosphate-induced delayed neuropathy” (Cell Discovery, 2017).

Experiments:
hTRPA1 = target: T1, hTRPA1 (Homo sapiens, UniProt O75762); assay: cell-based; assay type: cell-based; details: 30 μM, calcium-free external solution
T1 construct: expressed in transfected cells; host or cells: HEK293, transient, EGFP plasmid co-transfected
Description: (§1) Human embryonic kidney 293 (HEK293) cells were cultured in DMEM containing 10% (vol/vol) heat-inactivated fetal bovine serum, 100 units ml^−1 penicillin–streptomycin and 2 mM L-glutamine at 37 °C in a humidity-controlled sterile incubator with 5% CO2. All cell culture reagents were purchased from Life Technologies. HEK293 cells were transfected transiently with the corresponding plasmids using lipofectamine 2000 (Life Technologies). Transfection efficiency was monitored by co-transfecting EGFP plasmid which codes for the enhanced green fluorescent protein. Electrophysiological recordings were performed between 24 and 36 h after transfection.
(§2) Whole-cell patch-clamp recordings in DRG neurons (small diameter, […]) and HEK293 cells were operated at room temperature (23–25 °C) using EPC-10 amplifier and Patch Master Software (HEKA). […] Currents were sampled at 10 kHz and low-pass filtered at 2.9 kHz. The internal solution was as follows (in mM): 140 CsCl, 10 HEPES, 5 EGTA, 0.1 CaCl2 and 1 MgCl2, with pH adjusted to 7.2 by CsOH and osmolarity 295–300 mOsm. The calcium-free external solution contained (in mM) 140 NaCl, 5 KCl, 0.5 EGTA, 1 MgCl2, 10 Glucose and 10 HEPES, with pH adjusted to 7.4 by NaOH and osmolarity 300–310 mOsm. The 0.5 mM EGTA was replaced by 2 mM CaCl2 for the recordings in DRG neurons. TRPA1 currents development was monitored with repetitive injections of 300 ms duration voltage ramps from −100 to +100 mV every 2 s and the holding potential was set to 0 mV for 50 ms, existing in both sides of the voltage ramp. To record inward currents in DRG neurons, we conducted voltage clamp at holding membrane potential of −70 mV. Solutions were switched using a gravity-fed continuous focal perfusion system.

rTRPA1 = target: T2, rTRPA1 (Rattus norvegicus, UniProt Q6RI86); assay: Whole-cell patch-clamp, HEK293 cells expressing rTRPA1; assay type: cell-based; details: 30 μM, calcium-free external solution
T2 construct: expressed in transfected cells; host or cells: HEK293, transient
Description: as §1, §2

cTRPA1 = target: T3, cTRPA1 (Gallus gallus, UniProt W8VTH6); assay: Whole-cell patch-clamp, HEK293 cells expressing cTRPA1; assay type: cell-based, chicken
T3 sequence (W8VTH6 1-1126): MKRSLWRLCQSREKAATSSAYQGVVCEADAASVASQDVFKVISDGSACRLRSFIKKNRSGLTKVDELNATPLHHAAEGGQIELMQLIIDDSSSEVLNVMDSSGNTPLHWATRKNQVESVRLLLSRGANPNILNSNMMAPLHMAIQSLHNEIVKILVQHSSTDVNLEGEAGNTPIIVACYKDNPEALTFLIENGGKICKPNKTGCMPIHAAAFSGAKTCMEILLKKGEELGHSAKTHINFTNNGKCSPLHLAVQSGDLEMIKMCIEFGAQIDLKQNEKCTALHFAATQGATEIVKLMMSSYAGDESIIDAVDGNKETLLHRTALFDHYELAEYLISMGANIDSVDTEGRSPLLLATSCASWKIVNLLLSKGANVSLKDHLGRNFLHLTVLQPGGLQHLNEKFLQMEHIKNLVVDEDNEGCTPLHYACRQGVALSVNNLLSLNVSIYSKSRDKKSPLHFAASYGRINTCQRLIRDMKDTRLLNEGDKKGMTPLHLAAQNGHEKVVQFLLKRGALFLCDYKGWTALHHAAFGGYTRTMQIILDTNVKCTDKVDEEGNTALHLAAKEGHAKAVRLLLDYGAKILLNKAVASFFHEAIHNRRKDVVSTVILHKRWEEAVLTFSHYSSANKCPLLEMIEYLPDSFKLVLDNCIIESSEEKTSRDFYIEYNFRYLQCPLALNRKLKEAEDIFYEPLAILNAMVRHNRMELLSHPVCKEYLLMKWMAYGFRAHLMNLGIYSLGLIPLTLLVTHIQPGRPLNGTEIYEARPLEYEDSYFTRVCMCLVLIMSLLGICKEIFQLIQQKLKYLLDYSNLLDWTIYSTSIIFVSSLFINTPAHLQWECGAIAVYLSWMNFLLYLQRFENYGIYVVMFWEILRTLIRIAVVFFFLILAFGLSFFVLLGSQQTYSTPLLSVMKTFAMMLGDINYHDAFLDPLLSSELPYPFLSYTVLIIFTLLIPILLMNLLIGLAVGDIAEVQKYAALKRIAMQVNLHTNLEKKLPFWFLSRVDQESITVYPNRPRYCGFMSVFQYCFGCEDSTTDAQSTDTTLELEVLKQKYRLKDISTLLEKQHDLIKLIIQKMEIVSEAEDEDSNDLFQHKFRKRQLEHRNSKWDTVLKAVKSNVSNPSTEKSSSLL
Description: All cell culture reagents were purchased from Life Technologies. HEK293 cells were transfected transiently with the corresponding plasmids using lipofectamine 2000 (Life Technologies). Transfection efficiency was monitored by co-transfecting EGFP plasmid which codes for the enhanced green fluorescent protein. Electrophysiological recordings were performed between 24 and 36 h after transfection.
as §2, with “The internal solution was as follows (in mM): 140 CsCl, 10 HEPES, 5 EGTA, 0.1 CaCl2 and 1 MgCl2, with pH adjusted to 7.2 by CsOH and osmolarity 295–300 mOsm.” left out

hens [1] = assay type: in vivo, hen; details: hens, TOCP single dose 750 mg kg−1, end of the 21-day period
Description: The chosen adult Hyline Brown hens were raised individually in stainless steel wire cages. After 7 days of acclimatization, the chosen hens were randomly divided into groups (n=6–10 for each group). The hens in the delayed neuropathy groups were administered a single dose of 750 mg kg^−1 TOCP and repeated doses of 75 mg kg^−1 malathion by gavage. TOCP and malathion were dissolved in corn oil and administered at 0.65 ml kg^−1. In the HC030031 treatment groups, 100 mg kg^−1 HC030031 was administered by gavage daily beginning at day 0 or day 11. All hens were examined daily for signs of delayed neurotoxicity. A five-point graded scale was used to describe the clinical symptoms of delayed neuropathy, with 0 indicating normal ambulation; (1) suspected ataxia (lack of strength in the legs and tottering); (2) mild ataxia (slow, clumsy and unsteady gait); (3) gross ataxia (waddling gait and staggering and falling despite being active); (4) mild paralysis (typical paralytic posture and lame appearance); and (5) complete paralysis (unable to maintain posture, stand up or move at all), as described previously.

hens [2] = assay: Transmission electron microscopy of hen spinal cord and sciatic nerve; assay type: in vivo; details: 21 days after exposure
Description: For hens, the animals were anesthetized with sodium pentobarbital (100 mg kg^−1) and killed 21 days after exposure to TOCP and malathion. They were then perfused with normal saline followed immediately by 4% paraformaldehyde. The lumbar spinal cord at approximately the L2-L3 level and the sciatic nerve of the left leg were removed and fixed by immersion in ice-cold 2.5% glutaraldehyde. Subsequently, the samples were post-fixed in 1% OsO4 for 1 h, dehydrated with the ethanol series, and embedded in epon resin. Sixty-nanometer ultra-thin sections were double stained with lead citrate and uranyl acetate and examined with an electron microscopy.

mTRPA1 = mTRPA1 (Mus musculus, UniProt Q8BLA8); assay: Whole-cell patch-clamp, HEK293 cells expressing mTRPA1; assay type: cell-based; parameters: expressed in transfected cells; host or cells: HEK293; details: 30 μM, calcium-free external solution
Description: as §1, §2

[3] = test system: hTRPA1 carrying single mutations (C414A, C421A, C621A, C641A, C665A or K710R); assay: Whole-cell patch-clamp of mutant hTRPA1 channels; assay type: cell-based, human; details: 30 μM flufenamic acid
Description: as §1
Whole-cell patch-clamp recordings in DRG neurons (small diameter, […]) and HEK293 cells were operated at room temperature (23–25 °C) using EPC-10 amplifier and Patch Master Software (HEKA). […] Currents were sampled at 10 kHz and low-pass filtered at 2.9 kHz. The internal solution was as follows (in mM): 140 CsCl, 10 HEPES, 5 EGTA, 0.1 CaCl2 and 1 MgCl2, with pH adjusted to 7.2 by CsOH and osmolarity 295–300 mOsm. […] TRPA1 currents development was monitored with repetitive injections of 300 ms duration voltage ramps from −100 to +100 mV every 2 s and the holding potential was set to 0 mV for 50 ms, existing in both sides of the voltage ramp. […]

mTRPA1, sequence (Q8BLA8 whole entry): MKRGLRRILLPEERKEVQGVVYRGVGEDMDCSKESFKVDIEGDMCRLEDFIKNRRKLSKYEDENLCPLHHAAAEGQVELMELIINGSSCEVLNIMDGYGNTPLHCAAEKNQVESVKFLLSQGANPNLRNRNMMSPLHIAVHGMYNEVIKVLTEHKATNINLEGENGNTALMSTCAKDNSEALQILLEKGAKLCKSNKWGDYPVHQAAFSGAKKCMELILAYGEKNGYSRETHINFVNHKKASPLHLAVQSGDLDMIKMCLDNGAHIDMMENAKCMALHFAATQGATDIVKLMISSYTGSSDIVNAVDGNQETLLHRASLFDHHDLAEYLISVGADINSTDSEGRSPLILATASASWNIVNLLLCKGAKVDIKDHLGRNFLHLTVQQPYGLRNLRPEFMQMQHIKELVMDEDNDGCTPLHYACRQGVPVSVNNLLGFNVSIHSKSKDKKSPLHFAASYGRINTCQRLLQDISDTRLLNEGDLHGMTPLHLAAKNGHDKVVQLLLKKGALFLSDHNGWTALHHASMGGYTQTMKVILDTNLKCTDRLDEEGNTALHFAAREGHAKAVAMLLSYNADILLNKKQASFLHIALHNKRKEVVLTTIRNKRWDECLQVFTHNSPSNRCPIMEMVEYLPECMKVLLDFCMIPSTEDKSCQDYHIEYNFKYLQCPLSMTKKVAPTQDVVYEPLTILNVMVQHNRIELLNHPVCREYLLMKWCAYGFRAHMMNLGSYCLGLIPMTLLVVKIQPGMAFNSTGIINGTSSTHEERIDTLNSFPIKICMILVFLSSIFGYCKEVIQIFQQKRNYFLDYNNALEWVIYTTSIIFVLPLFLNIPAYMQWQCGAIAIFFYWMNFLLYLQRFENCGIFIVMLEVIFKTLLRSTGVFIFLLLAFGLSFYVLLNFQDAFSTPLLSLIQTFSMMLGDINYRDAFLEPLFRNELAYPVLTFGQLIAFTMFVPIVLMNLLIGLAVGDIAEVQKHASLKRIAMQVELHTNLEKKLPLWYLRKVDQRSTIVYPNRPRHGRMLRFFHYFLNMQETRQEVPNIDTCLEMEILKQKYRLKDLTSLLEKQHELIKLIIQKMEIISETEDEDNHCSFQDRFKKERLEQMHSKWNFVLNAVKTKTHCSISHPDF
T2 sequence (Q6RI86 whole entry): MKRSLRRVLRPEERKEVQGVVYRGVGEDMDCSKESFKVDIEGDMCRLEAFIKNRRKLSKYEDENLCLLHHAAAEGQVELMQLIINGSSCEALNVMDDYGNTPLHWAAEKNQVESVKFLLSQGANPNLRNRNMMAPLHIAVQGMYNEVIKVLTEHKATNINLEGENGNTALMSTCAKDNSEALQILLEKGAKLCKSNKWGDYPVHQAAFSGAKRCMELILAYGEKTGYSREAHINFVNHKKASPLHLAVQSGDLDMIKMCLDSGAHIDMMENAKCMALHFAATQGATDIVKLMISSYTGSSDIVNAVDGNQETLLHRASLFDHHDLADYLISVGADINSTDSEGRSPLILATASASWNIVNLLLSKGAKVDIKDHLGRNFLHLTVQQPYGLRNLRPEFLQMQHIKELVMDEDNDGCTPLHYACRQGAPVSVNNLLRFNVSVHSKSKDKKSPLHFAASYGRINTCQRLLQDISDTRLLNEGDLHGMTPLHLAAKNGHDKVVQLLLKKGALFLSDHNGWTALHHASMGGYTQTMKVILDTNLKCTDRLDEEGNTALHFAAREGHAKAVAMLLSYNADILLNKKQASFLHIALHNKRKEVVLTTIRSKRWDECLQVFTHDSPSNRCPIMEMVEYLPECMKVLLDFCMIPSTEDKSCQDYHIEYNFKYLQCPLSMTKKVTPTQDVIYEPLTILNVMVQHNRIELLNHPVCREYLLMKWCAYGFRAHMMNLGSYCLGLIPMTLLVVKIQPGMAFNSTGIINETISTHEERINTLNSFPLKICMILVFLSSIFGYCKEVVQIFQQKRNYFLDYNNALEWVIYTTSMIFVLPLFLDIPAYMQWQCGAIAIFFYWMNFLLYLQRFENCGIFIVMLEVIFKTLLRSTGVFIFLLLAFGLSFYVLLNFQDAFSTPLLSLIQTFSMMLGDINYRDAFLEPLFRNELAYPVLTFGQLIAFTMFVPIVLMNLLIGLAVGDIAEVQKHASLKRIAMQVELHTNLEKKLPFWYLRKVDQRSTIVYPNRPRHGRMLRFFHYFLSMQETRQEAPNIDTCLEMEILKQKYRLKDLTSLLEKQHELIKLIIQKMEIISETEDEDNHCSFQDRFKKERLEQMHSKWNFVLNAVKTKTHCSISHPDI
T1 sequence (O75762 whole entry): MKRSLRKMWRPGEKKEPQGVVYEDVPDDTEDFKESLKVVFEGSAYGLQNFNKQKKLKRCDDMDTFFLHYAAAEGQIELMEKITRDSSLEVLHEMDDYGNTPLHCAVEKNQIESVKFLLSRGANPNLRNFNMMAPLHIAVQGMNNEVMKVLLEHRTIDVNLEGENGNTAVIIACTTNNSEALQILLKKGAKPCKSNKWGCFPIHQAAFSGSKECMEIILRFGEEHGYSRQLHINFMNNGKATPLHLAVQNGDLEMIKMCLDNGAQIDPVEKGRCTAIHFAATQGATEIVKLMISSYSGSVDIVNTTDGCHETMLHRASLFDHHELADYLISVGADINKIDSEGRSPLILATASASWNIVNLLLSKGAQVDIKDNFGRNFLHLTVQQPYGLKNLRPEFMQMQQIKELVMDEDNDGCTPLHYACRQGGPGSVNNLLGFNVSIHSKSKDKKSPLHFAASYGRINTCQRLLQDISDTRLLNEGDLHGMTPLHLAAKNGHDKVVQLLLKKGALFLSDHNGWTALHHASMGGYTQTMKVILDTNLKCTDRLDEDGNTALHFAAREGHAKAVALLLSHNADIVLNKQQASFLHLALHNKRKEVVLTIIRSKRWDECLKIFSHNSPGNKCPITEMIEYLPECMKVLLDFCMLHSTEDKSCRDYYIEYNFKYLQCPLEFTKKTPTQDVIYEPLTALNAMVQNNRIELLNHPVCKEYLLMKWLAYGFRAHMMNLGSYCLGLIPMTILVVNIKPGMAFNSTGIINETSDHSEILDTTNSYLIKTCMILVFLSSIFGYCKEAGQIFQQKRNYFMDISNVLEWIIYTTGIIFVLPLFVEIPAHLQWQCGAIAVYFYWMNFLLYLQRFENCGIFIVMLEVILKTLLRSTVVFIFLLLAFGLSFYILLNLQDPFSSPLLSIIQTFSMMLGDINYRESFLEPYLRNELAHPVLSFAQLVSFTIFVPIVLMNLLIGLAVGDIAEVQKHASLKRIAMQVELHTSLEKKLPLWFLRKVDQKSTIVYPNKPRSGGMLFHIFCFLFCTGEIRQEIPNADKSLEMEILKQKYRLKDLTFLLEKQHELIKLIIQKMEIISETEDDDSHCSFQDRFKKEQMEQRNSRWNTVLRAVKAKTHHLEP

| SMILES | activation of hTRPA1 whole-cell currents (hTRPA1) | activation of rTRPA1 whole-cell currents (rTRPA1) | EC50 (cTRPA1) [µM] | activation of cTRPA1 whole-cell currents (cTRPA1; calcium-free external solution) | clinical symptoms of delayed neuropathy (hens [1]) | damage of spinal cord and sciatic nerve (TEM) (hens [2]) | activation of mTRPA1 whole-cell currents (mTRPA1) | role of the mutated residues (except C414) for activation of TRPA1 [3] |
| --- | --- | --- | --- | --- | --- | --- | --- | --- |
| Cc1ccccc1OP(=O)(Oc1ccccc1C)Oc1ccccc1C [TOCP, tri-ortho-cresyl phosphate] | effectively activate | effectively activate | 15.8 ± 1.37 | effectively activate | completely paralyzed | severely damaged the spinal cord and sciatic nerve | effectively activate | – |
| O=C(O)c1ccccc1Nc1cccc(C(F)(F)F)c1 [flufenamic acid] | – | – | – | – | – | – | – | not essential |
